Experimental data taken from patent US9499495B2, “Quinazolines and azaquinazolines as dual inhibitors of RAS/RAF/MEK/ERK and PI3K/AKT/PTEN/mTOR pathways” (Asana Biosciences, LLC, priority 2013, dated 2016).
pIC50: −log10 of the molar value.

What was measured:
B-RAFV600E = biological target: T1, B-RAFV600E (Homo sapiens, UniProt P15056, V600E); assay: B-RAFV600E radiometric assay; format: biochemical; settings: read-out: Kinase assay B-Raf
T1 construct: purchased Millipore, USA 14-557
Method: Compound inhibition for B-RAFV600E was determined through radiometric assay using a BRAF enzyme (Catalog No. 14-557, Millipore, USA) and MEK-K97M protein as a substrate (Catalog No. 0785-0000-1, ProqQinase GmbH, Germany). The B-RAF kinase catalyzes the phosphorylation of MEK protein in the presence of gamma ATP (PLC-101, Jonaki, CCMB, Hyderabad), cold ATP and Mg^2+.
The phosphorylated protein product is detected by the scintillation counter Topcount® machine (Perkin Elmer). This assay has been adapted from the method previously reported by Yeh et al. (2007, Clinical Cancer Research; 13, 1576-1583). The assay measures the B-RAF mediated transfer of 32P from the gamma position of radiolabeled ATP onto MEK1-KD. The labeled phosphorylated protein was measured in MicroBeta® Trilux Counter (Perkin Elmer). The assay was validated with reference compounds RAF1 Kinase Inhibitor I and ZM 336372 inhibitor which are reported to be inhibitors of B-RAF enzyme (Lackey, 2000, Medicinal Chemistry Letters; 10(3):223-226; Kupcho, “Fluorescent High throughput kinase cascade assays for inhibitor characterization, RAF-MEK-ERK pathway, www.invitrogen.com, and Hall-Jackson, 1999, Chemical Biology; 6(8):559-568). B-RAF enzyme mixture (13 μL) was added to compound wells containing 2 μL of the NCE in 1% DMSO and incubated for 45 min at rt on a shaking incubator at 300 rpm. MEK-K97M (0.5 μg) and cold ATP to a final concentration of 5 μM, and hot ATP 0.1 μCi in a volume of 10 μL was added to each well and incubated for 2 h at rt on a shaking incubator at 300 rpm. The reaction was stopped by addition of […] (13 μL) containing ATP (1 mM: 495 μL 1N HCl and 5 μL 100 mM ATP). Aliquot (30 μL) was then transferred to the center of a 2 cm×2 cm P81 paper. P81 paper was washed 8×5 min each with ortho-phosphoric acid (0.5%). P81 papers are washed twice with acetone for […] Assay squares were allowed to dry for […] at 37° C. P81 paper are transferred to Optiplate™ (Perkin Elmer) and counted in a Topcount® counter (Perkin Elmer). Data was plotted against the compound concentration to generate dose-response curves and IC50 values were determined using a sigmoidal dose response curve fit GraphPad Prism® v5 software.

mTOR kinase = biological target: T2, mTOR kinase (Homo sapiens, UniProt P42345); assay: mTOR kinase TR-FRET assay; format: biochemical
T2 construct: purchased Millipore, US
Method: Compound inhibition for mTOR kinase was determined by homogeneous TR-FRET assay using ULight-p70 S6K (Thr 389) peptide as substrate. mTOR enzyme (Millipore, US; […]) was used in the assay. The reaction buffer was HEPES (50 mM, pH 7.5), EGTA (1 mM), and MnCl2 (3 mM). Test compound was pre-incubated with mTOR for 30 min followed by 50 nM ULight-p70 S6K (Thr 389) peptide along with ATP (20 μM).
After incubating the reaction mixture for 30 min, Eu-labeled anti-phospho-substrate antibody (1 nM, Perkin Elmer, USA) was added. Fluorescence emission at […] was measured upon excitation at 340 nm. The compound dilution was carried out in 100% DMSO followed by a buffer dilution. The kinase reaction was incubated for 1 h at rt followed by the addition of substrate-ATP mix and incubated at rt for 1 h. The reaction was terminated by the addition of EDTA followed by the addition of detection mix. IC50 values were determined using a sigmoidal dose response curve fit, GraphPad Prism® v5 software.

T1 sequence (P15056 416-766 V600E limits assumed): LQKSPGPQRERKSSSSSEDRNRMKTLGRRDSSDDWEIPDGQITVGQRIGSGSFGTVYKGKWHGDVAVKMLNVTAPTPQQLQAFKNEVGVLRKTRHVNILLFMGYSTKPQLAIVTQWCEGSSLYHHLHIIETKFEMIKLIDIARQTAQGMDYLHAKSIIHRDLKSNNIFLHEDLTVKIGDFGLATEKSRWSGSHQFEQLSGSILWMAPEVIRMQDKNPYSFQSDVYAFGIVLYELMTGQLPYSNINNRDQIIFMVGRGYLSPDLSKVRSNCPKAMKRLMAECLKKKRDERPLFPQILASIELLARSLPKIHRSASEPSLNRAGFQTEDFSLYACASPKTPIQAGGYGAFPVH
T2 sequence (P42345 1362-2549 limits assumed): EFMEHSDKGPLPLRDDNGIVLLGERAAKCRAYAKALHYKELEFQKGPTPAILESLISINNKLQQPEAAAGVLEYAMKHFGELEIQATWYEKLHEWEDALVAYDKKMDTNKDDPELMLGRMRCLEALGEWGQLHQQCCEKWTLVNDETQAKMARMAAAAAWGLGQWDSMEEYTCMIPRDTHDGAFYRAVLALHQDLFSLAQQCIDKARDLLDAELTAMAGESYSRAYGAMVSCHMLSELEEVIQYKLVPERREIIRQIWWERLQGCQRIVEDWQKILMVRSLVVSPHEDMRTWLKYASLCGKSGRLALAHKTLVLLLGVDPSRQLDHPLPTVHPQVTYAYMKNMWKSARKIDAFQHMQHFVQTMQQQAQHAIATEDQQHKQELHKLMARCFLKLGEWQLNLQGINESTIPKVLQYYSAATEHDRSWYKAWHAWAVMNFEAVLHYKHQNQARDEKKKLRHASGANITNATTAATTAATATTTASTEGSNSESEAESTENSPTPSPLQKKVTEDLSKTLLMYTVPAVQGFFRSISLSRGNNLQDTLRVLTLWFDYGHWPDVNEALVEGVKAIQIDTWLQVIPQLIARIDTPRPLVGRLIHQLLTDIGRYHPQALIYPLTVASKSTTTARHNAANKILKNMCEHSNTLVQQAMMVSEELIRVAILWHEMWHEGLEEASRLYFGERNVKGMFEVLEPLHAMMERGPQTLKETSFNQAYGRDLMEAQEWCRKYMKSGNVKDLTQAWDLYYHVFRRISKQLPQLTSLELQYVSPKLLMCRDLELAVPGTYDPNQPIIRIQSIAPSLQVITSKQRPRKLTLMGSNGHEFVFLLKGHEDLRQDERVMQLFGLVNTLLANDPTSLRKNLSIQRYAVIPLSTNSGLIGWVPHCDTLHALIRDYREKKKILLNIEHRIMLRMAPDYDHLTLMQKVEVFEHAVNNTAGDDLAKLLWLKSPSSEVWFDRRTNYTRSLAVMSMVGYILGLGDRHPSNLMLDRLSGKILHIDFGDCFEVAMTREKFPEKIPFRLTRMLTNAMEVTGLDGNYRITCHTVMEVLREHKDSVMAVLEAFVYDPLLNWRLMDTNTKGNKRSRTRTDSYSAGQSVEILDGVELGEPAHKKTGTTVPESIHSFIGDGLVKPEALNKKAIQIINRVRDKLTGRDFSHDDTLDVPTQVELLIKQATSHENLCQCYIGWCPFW

pIC50 (B-RAFV600E) | pIC50 (mTOR kinase) | Structure (SMILES)
7.00 to 9.00 | 6.00 to 7.00 | CCOc1cc(-c2cccc(NS(=O)(=O)CCCF)c2F)cc2c(N3CCOC[C@@H]3C)nc(-c3cnc(N)nc3)nc12 [Example 66]
7.00 to 9.00 | 7.00 to 9.00 | C[C@@H]1COCCN1c1nc(-c2ccc(N)nc2)nc2c(N3CCOCC3)cc(-c3cccc(NS(=O)(=O)CCCF)c3F)cc12 [Example 72, (R)-N-(3-(2-(6-aminopyridin-3-yl)-4-(3-methylmorpholino)-8-morpholinoquinazolin-6-yl)-2-fluorophenyl)-3-fluoropropane-1-sulfonamide]
7.00 to 9.00 | 6.00 to 7.00 | C[C@@H]1COCCN1c1nc(-c2ccc(N)nc2)nc2c(N3CCCC3)cc(-c3cccc(NS(=O)(=O)CCCF)c3F)cc12 [Example 74, (R)-N-(3-(2-(6-aminopyridin-3-yl)-4-(3-methylmorpholino)-8-(pyrrolidin-1-yl)quinazolin-6-yl)-2-fluorophenyl)-3-fluoropropane-1-sulfonamide]
7.00 to 9.00 | 6.00 to 7.00 | COc1cc(-c2c(F)ccc(NS(=O)(=O)CCCF)c2F)cc2c(N3CCOCC3)nc(-c3cnc4[nH]ccc4c3)nc12 [Example 83]
7.00 to 9.00 | 6.00 to 7.00 | COc1cc(-c2c(Cl)ccc(NS(=O)(=O)CCCF)c2F)cc2c(N3CCOCC3)nc(-c3ccc(N)nc3)nc12 [Example 85, N-(3-(2-(6-aminopyridin-3-yl)-8-methoxy-4-morpholinoquinazolin-6-yl)-4-chloro-2-fluorophenyl)-3-fluoropropane-1-sulfonamide]
7.00 to 9.00 | 6.00 to 7.00 | CCc1cc(-c2cccc(NS(=O)(=O)CCCF)c2F)cc2c(N3CCOC[C@H]3C)nc(-c3cnc(N)nc3)nc12 [Example 119, (R)-N-(3-(2-(2-aminopyrimidin-5-yl)-8-ethyl-4-(3-methylmorpholino)quinazolin-6-yl)-2-fluorophenyl)-3-fluoropropane-1-sulfonamide]
7.00 to 9.00 | 6.00 to 7.00 | COc1cc(-c2cccc(NS(=O)(=O)CCCF)c2F)cc2c(N3CCOCC3)nc(-c3ccc(NC(C)=O)nc3)nc12 [Example 124, N-(5-(6-(2-fluoro-3-(3-fluoropropylsulfonamido)phenyl)-8-methoxy-4-morpholinoquinazolin-2-yl)pyridin-2-yl)acetamide]
6.00 to 7.00 | 6.00 to 7.00 | COc1cc(-c2cccc(NS(=O)(=O)CCCF)c2F)cc2c(N3CCOCC3)nc(-c3ccc(NS(C)(=O)=O)cc3)nc12 [Example 126, 3-f1uoro-N-(2-fluoro-3-(8-methoxy-2-(4-(methylsulfonamido)phenyl)-4-morpholinoquinazolin-6-yl)phenyl)propane-1-sulfonamide]
7.00 to 9.00 | 6.00 to 7.00 | COCCNc1ccc(-c2nc(N3CCOCC3)c3nc(-c4cccc(NS(=O)(=O)CCCF)c4F)ccc3n2)cn1 [Example 133, 3-fluoro-N-(2-fluoro-3-(2-(6-((2-methoxyethyl)amino)pyridin-3-yl)-4-morpholinopyrido[3,2-d]pyrimidin-6-yl)phenyl)propane-1-sulfonamide]

More lines, now with the values behind:

Structure (SMILES) | pIC50 (B-RAFV600E) | pIC50 (mTOR kinase)
CCCS(=O)(=O)Nc1cccc(-c2cc(OCCO)c3nc(-c4ccc(N)nc4)nc(N4CCOCC4)c3c2)c1F [Example 4, N-(3-(2-(6-aminopyridin-3-yl)-8-(2-hydroxyethoxy)-4-morpholinoquinazolin-6-yl)-2-fluorophenyl)propane-1-sulfonamide] | 6.00 to 7.00 | 6.00 to 7.00
CCCS(=O)(=O)Nc1cccc(-c2cc(OC)c3nc(-n4c(CO)nc5ccccc54)nc(N4CCOCC4)c3c2)c1F [Example 10, N-(2-fluoro-3-(2-(2-(hydroxymethyl)-1H-benzo[d]imidazol-1-yl)-8-methoxy-4-morpholinoquinazolin-6-yl)phenyl)propane-1-sulfonamide] | 6.00 to 7.00 | 6.00 to 7.00
CCCCS(=O)(=O)Nc1cccc(-c2cc(OC)c3nc(-c4cnc(N)nc4)nc(N4CCOCC4)c3c2)c1F [Example 23, N-(3-(2-(2-aminopyrimidin-5-yl)-8-methoxy-4-morpholinoquinazolin-6-yl)-2-fluorophenyl)butane-1-sulfonamide] | 6.00 to 7.00 | 6.00 to 7.00
COc1cc(-c2cccc(NS(=O)(=O)c3ccc(F)cc3F)c2F)cc2c(N3CCOCC3)nc(-c3cnc(N)nc3)nc12 [Example 24, N-(3-(2-(2-aminopyrimidin-5-yl)-8-methoxy-4-morpholinoquinazolin-6-yl)-2-fluorophenyl)-2,4-difluorobenzenesulfonamide] | 6.00 to 7.00 | 6.00 to 7.00
COc1cc(-c2cccc(NS(=O)(=O)CCC(F)(F)F)c2F)cc2c(N3CCOCC3)nc(-c3ccc(N)nc3)nc12 [Example 31, N-(3-(2-(6-aminopyridin-3-yl)-8-methoxy-4-morpholinoquinazolin-6-yl)-2-fluorophenyl)-3,3,3-trifluoropropane-1-sulfonamide] | 6.00 to 7.00 | 6.00 to 7.00
CCCS(=O)(=O)Nc1cccc(-c2cc(OC)c3nc(-c4ccc(NC(=O)Nc5ccncc5)cc4)nc(N4CCOCC4)c3c2)c1F [Example 34, N-(2-fluoro-3-(8-methoxy-4-morpholino-2-(4-(3-(pyridin-4-yl)ureido)phenyl)quinazolin-6-yl)phenyl) propane-1-sulfonamide] | 6.00 to 7.00 | 7.00 to 9.00
COc1cc(-c2cccc(NS(=O)(=O)CCCF)c2F)cc2c(N3CCOCC3)nc(-c3cnc(N)nc3C)nc12 [Example 35, N-(3-(2-(2-amino-4-methylpyrimidin-5-yl)-8-methoxy-4-morpholinoquinazolin-6-yl)-2-fluorophenyl)-3-fluoropropane-1-sulfonamide] | 7.00 to 9.00 | 6.00 to 7.00
COc1cc(-c2cccc(NS(=O)(=O)CCCF)c2F)cc2c(N3CCOC[C@H]3C)nc(-c3cnc4[nH]ccc4c3)nc12 [Example 44, (R)-3-fluoro-N-(2-fluoro-3-(8-methoxy-4-(3-methylmorpholino)-2-(1H-pyrrolo[2,3-b]pyridin-5-yl)quinazolin-6-yl)phenyl)propane-1-sulfonamide] | 6.00 to 7.00 | 6.00 to 7.00
CCCNc1ccc(-c2nc(N3CCOCC3)c3cc(-c4cccc(NS(=O)(=O)CCCF)c4F)cc(OC)c3n2)cn1 [Example 49, 3-fluoro-N-(2-fluoro-3-(8-methoxy-4-morpholino-2-(6-(propylamino)pyridin-3-yl)quinazolin-6-yl)phenyl)propane-1-sulfonamide] | 7.00 to 9.00 | 6.00 to 7.00
Nc1ccc(-c2nc(N3CCOCC3)c3cc(-c4cccc(NS(=O)(=O)CCCF)c4F)cc(OCC(=O)O)c3n2)cn1 [Example 59, 2-((2-(6-aminopyridin-3-yl)-6-(2-fluoro-3-(3-fluoropropylsulfonamido)phenyl)-4-morpholino-quinazolin-8-yl)oxy)acetic acid 2,2,2-trifluoroacetate] | 6.00 to 7.00 | 7.00 to 9.00
CCOc1cc(-c2cccc(NS(=O)(=O)CCCF)c2F)cc2c(N3CCOC[C@H]3C)nc(-c3cnc4[nH]ccc4c3)nc12 [Example 61, (R)-N-(3-(8-ethoxy-4-(3-methylmorphollno)-2-(1H-pyrrolo[2,3-b]pyridin-5-yl)quinazolin-6-yl)-2-fluorophenyl)-3-fluoropropane-1-sulfonamide] | 7.00 to 9.00 | 6.00 to 7.00
